“And” between values parts separate entries of the source, which are not always exact repeats. Equal entries are not always repeated. Where two headings read alike, the source gives them in different places. Bridge positions count the residues as written; N and C are the ends. Square brackets hold non-standard residues; d marks the D form. Peptide text beside a SMILES is read from it. * marks the point of attachment. X1 = C=CCN1CC[C@]23c4c5ccc(O)c4O[C@H]2[C@H](N*)CC[C@@]3(O)[C@H]1C5
Legend:
[1] = target: T1, human KOR I316A (Homo sapiens, UniProt P41145, I316A); format: cell-based; conditions: HEK-293T
T1 construct: FLAG; expressed in transfected cells; host or cells: HEK293 / HEK293T, transient

[2] = tested on: male SWISS mice; assay: CFA-induced inflammatory hyperalgesia, Hargreaves test; format: in vivo, mouse; conditions: for CFA-induced inflammatory hyperalgesia (paw withdrawal latency): individual mice, listed as DNCP-ß-NalA (1)
Procedure: CFA-induced inflammatory hyperalgesia was induced in male SWISS mice (8–10 weeks old, 30–35 g body weight, n = 53 mice) by s.c. injection of 20 µL emulsified CFA (1 mg mL^−1) into the plantar surface of the right hindpaw under brief isoflurane anesthesia. Nociceptive testing was performed 72 h after inoculation with CFA. Hindpaws withdrawal latencies to thermal stimulation were measured using the Hargreaves test[84] with an analgesiometer (Ugo Basile S.R.L., Varese, Italy). Male mice were habituated in individual Plexiglas boxes positioned on a glass surface (Ugo Basile S.R.L., Varese, Italy) for three days prior to the inoculation with CFA. A movable infrared generator (30% intensity) located under the glass floor was focused onto the plantar surface of the hindpaw and switched on to heat. Onset of the radiant stimulus triggered a timer, which was stopped by subsequent paw movement. To prevent tissue damage, a cut-off time of 20 s was imposed. […] The paw withdrawal latencies to thermal stimulus was expressed in seconds.

[3] = tested on: male SWISS mice; assay: Rotarod test (motor coordination/sedation); format: in vivo, mouse; conditions: DNCP-β-NalA(1) 3.8 and 7.6, U50,488 5.4 µmol kg^−1 s.c.
Procedure: The rotarod test was used to evaluate coordinated locomotion and potential sedation induced by test drugs. […] Male SWISS mice (8–10 weeks old, 30–35 g body weight, n = 21 mice) were habituated to the equipment in two training sessions (30 min apart) one day before testing. On the experimental day, male mice were placed on the rotarod, and treadmill was accelerated from 4 to 40 rotations-per-minute over a period of 5 min. […] Decreased latencies to fall in the rotarod test indicate impaired motor performance. A 300 s cut-off time was used. The rotarod data are expressed as percentage (%) changes from the rotarod latencies obtained before (baseline) and after drug administration (test, T) were calculated as 100*(T/B).

[4] = target: T2, human KOR E209A (Homo sapiens, UniProt P41145, E209A); format: cell-based; conditions: HEK-293T, KOR E209A
T2 construct: FLAG; expressed in transfected cells; host or cells: HEK293 / HEK293T, transient

[5] = tested on: male SWISS mice; assay: Paw thickness 60 min after formalin injection; format: in vivo, mouse; conditions: for Paw thickness: individual mice, listed as DNCP-ß-NalA (1)
Procedure: Sixty min after injection of formalin to male mice, maximal paw thickness of the right hind paw (i.e., formalin-injected hind paw) was measured using a digital micrometer (FixPoint, Vienna, Austria). Data are expressed in mm.

[6] = target: T3, mouse KOR (Mus musculus, UniProt P33534); assay: cell-based; design: expressed in transfected cells; conditions: HEK-293T, read-out: Emax cAMP assay
Target sequence in this assay (P33534 whole entry): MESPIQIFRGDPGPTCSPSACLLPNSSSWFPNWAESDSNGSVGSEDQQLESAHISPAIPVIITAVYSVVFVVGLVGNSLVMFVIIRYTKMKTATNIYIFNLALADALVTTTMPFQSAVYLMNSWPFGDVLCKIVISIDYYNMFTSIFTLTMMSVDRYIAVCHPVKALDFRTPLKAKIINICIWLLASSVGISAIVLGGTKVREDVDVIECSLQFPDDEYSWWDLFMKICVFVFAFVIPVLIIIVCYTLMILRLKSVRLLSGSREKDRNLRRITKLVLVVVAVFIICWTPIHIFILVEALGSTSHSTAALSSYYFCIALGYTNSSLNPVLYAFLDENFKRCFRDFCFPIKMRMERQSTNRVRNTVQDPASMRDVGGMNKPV

[7] = target: T4, human KOR F293A (Homo sapiens, UniProt P41145, F293A); format: cell-based; conditions: HEK-293T
T4 construct: FLAG; expressed in transfected cells; host or cells: HEK293 / HEK293T, transient

[8] = target: T5, human KOR I135A (Homo sapiens, UniProt P41145, I135A); format: cell-based; conditions: HEK-293T
T5 construct: FLAG; expressed in transfected cells; host or cells: HEK293 / HEK293T, transient

[9] = target: T6, human KOR H304A (Homo sapiens, UniProt P41145, H304A); format: cell-based; conditions: HEK-293T
T6 construct: FLAG; expressed in transfected cells; host or cells: HEK293T

[10] = target: human KOR (Homo sapiens, UniProt P41145); assay: [35S]GTPγS binding assay, CHO membranes; format: biochemical; design: expressed in transfected cells
[11] = target: T3, mouse KOR; assay: cell-based; design: expressed in transfected cells; host or cells: HEK293T, transient; conditions: HEK-293T, read-out: Emax β-arrestin-2 recruitment
Target sequence in this assay (P33534 whole entry): as above
Target sequence in this assay (P32121 whole entry partner): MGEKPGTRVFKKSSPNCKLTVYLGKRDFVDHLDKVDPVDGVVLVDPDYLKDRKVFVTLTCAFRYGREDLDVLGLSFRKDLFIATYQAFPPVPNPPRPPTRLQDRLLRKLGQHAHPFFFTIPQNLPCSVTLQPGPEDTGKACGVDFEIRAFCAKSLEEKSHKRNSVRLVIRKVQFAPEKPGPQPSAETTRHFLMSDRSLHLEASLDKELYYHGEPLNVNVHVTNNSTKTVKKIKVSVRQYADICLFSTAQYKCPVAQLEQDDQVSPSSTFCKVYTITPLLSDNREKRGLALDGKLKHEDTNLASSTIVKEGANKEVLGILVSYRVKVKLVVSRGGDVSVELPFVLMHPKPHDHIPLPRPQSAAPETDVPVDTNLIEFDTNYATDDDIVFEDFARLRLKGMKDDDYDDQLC

[12] = target: T7, human KOR L309A (Homo sapiens, UniProt P41145, L309A); assay: BRET β-arrestin-2 biosensor assay; format: cell-based; conditions: KOR L309A
T7 construct: FLAG; expressed in transfected cells; host or cells: HEK293T

[13] = target: T8, human KOR Q115A (Homo sapiens, UniProt P41145, Q115A); format: cell-based; conditions: HEK-293T
T8 construct: FLAG; expressed in transfected cells; host or cells: HEK293 / HEK293T, transient

[14] = target: mouse KOR, GαoA (Mus musculus, UniProt P33534); assay: TRUPATH BRET G protein assay, GαoA; format: cell-based; conditions: read-out: Emax (%) GαoA
[15] = target: T9, human KOR Y312A (Homo sapiens, UniProt P41145, Y312A); assay: BRET β-arrestin-2 biosensor assay; format: cell-based
T9 construct: FLAG; expressed in transfected cells; host or cells: HEK293T

[16] = Serum stability assay (HPLC)
Procedure: Blood was drawn from healthy volunteers devoid of any medication for 14 days from the antecubital vein using 21 G needles and collected in a serum clot activator tube (4 mL tubes, Greiner bio-one). […] Volunteers gave written informed consent before blood donation. […] Blood samples were collected into Vacuette® clot activator tubes (Greiner Bio-One, Austria). After clotting of about 2 h, the samples were centrifuged at 2200 × g for 15 min at 22 °C. The serum was removed and centrifuged again to remove lipids and cell particles at 16,000 × g at 4 °C for 20 min. […] The samples were incubated at 37 °C under continuous shaking at 300 rotations-per-minute. […] The samples were mixed well and incubated on ice for 10 min. For the protein precipitation, 30 µL of a 20% (w/v) trichloroacetic acid was added and incubated on ice for 15 min. The clear supernatant was harvested by centrifugation at 16,000 × g at 4 °C for 20 min and this sample was used for HPLC analysis. The chromatography HPLC system was a ThermoFisher Ultimate 3000 equipped with a pump, autosampler and single wavelength detector. […] The remaining peptide was calculated relative to the AUC at time point zero. The data points were fitted to a one-phase decay function and to determine the resulting half-life of the peptide in serum.
0.1% trifluoroacetic acid in water and acetonitrile/water trifluoroacetic acid 90/10/0.1% (v/v/v) with a
linear separation gradient over 30 min.

[17] = target: T10, human KOR WT (Homo sapiens, UniProt P41145); format: cell-based; conditions: HEK-293T, KOR WT
T10 construct: FLAG; expressed in transfected cells; host or cells: HEK293T, transient
T10 sequence (P41145 whole entry): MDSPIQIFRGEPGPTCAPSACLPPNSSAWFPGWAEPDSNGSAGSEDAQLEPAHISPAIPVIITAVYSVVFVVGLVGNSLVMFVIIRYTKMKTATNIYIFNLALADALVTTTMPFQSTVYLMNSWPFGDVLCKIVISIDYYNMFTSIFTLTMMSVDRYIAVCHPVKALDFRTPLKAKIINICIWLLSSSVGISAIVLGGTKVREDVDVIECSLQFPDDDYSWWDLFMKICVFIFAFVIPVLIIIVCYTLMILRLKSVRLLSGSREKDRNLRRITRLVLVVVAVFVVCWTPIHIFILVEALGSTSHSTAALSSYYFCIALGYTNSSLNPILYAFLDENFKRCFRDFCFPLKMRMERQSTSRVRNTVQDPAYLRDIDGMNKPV

T9 sequence (P41145 whole entry Y312A): as the sequence (P41145 whole entry) above, with Y312A counted along it
T5 sequence (P41145 whole entry I135A): as the sequence (P41145 whole entry) above, with I135A counted along it
T1 sequence (P41145 whole entry I316A): as the sequence (P41145 whole entry) above, with I316A counted along it
Chain of human KOR (P41145 whole entry): as the sequence (P41145 whole entry) above
T4 sequence (P41145 whole entry F293A): as the sequence (P41145 whole entry) above, with F293A counted along it
T6 sequence (P41145 whole entry H304A): as the sequence (P41145 whole entry) above, with H304A counted along it
T8 sequence (P41145 whole entry Q115A): as the sequence (P41145 whole entry) above, with Q115A counted along it
T2 sequence (P41145 whole entry E209A): as the sequence (P41145 whole entry) above, with E209A counted along it
T7 sequence (P41145 whole entry L309A): as the sequence (P41145 whole entry) above, with L309A counted along it
Chain of mouse KOR, GαoA (P33534 whole entry): as the sequence (P33534 whole entry) above
Chain of mouse KOR, GαoA (P09471 2-354 partner): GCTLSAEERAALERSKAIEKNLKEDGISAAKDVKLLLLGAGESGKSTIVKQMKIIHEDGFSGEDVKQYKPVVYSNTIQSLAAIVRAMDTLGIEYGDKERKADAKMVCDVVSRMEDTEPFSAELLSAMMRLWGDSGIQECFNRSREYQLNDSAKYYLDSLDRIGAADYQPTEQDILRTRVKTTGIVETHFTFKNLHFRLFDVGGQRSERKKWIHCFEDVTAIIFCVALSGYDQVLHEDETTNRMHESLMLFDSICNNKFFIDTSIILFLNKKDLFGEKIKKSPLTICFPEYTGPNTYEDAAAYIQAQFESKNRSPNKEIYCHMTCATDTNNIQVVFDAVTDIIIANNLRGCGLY

With C=CCN1CC[C@]23c4c5ccc(O)c4O[C@H]2[C@H](NC(=O)[C@@H](Cc2ccccc2)NC(=O)[C@@H](NC(=O)[C@@H]2CSCC(=O)N[C@@H](Cc4ccc(O)cc4)C(=O)N[C@@H](C)C(=O)N[C@H](Cc4ccc(O)cc4)C(=O)N[C@@H]([C@@H](C)O)C(=O)N[C@@H]([C@@H](C)O)C(=O)N2)[C@@H](C)O)CC[C@@]3(O)[C@H]1C5 [DNCP-β-NalA(1)] ({CH2CO}-YA[dY]TTCT[dF]-X1; thioether N-6) the Emax [1] was 85.75 ± 0.72%, the “CFA-induced inflammatory hyperalgesia (paw withdrawal latency)” value (“CFA-induced inflammatory hyperalgesia” below) ([2]; 0.4 µmol/kg, time 0.5 h) was 4.5 s and 3.8 s and 3.4 s and 4.3 s and 3.3 s and 4.6 s and the “CFA-induced inflammatory hyperalgesia” value ([2]; 0.4 µmol/kg, time 1 h) was 4.1 s and 5.3 s and 2.8 s and 3.2 s and 3 s and 2.4 s. The “CFA-induced inflammatory hyperalgesia” value ([2]; 0.4 µmol/kg, time 2 h) was 5.2 seconds and 3.9 seconds and 3.8 seconds and 3.4 seconds (2×) and 3.2 seconds, the “CFA-induced inflammatory hyperalgesia” value ([2]; 0.4 µmol/kg, time 3 h) was 4.6 seconds and 3.9 seconds and 4.1 seconds and 3.4 seconds (2×) and 2.9 seconds and the “CFA-induced inflammatory hyperalgesia” value ([2]; 0.4 µmol/kg, time 4 h) was 4 s and 3.6 s and 3.4 s and 3 s and 3.2 s and 2.7 s. For the same compound, the “CFA-induced inflammatory hyperalgesia” value ([2]; 0.8 µmol/kg, time 0.5 h) was 3.8 s and 4.7 s and 5.2 s and 5.9 s and 4 s and 4.4 s, the “CFA-induced inflammatory hyperalgesia” value ([2]; 0.8 µmol/kg, time 1 h) was 3.4 seconds and 3.5 seconds (2×) and 4.2 seconds and 3.8 seconds and 3.6 seconds and the “CFA-induced inflammatory hyperalgesia” value ([2]; 0.8 µmol/kg, time 2 h) was 2.7 seconds and 3.7 seconds and 3.9 seconds (2×) and 3.4 seconds and 4 seconds. For the same compound, the “CFA-induced inflammatory hyperalgesia” value ([2]; 0.8 µmol/kg, time 3 h) was 3.5 seconds (3×) and 3.1 seconds (2×) and 2.9 seconds, the “CFA-induced inflammatory hyperalgesia” value ([2]; 0.8 µmol/kg, time 4 h) was 2.6 seconds and 3.4 seconds and 3 seconds and 3.2 seconds and 3.1 seconds (2×) and the “CFA-induced inflammatory hyperalgesia” value ([2]; 0.8 µmol/kg, time BL) was 10.2 s and 11.3 s and 9.9 s and 10.1 s and 10.3 s. The “CFA-induced inflammatory hyperalgesia” value ([2]; 1.9 µmol/kg, time 0.5 h) was 4.2 s and 5.6 s and 7.4 s and 7.3 s and 7.2 s and 5.3 s, the “CFA-induced inflammatory hyperalgesia” value ([2]; 1.9 µmol/kg, time 1 h) was 3.9 seconds and 4.5 seconds (2×) and 6.6 seconds and 5 seconds and 3.5 seconds and the “CFA-induced inflammatory hyperalgesia” value ([2]; 1.9 µmol/kg, time 2 h) was 2.9 s and 4.1 s and 4.4 s and 3.4 s and 3.5 s and 3.8 s. For the same compound, the “CFA-induced inflammatory hyperalgesia” value ([2]; 1.9 µmol/kg, time 3 h) was 3.5 seconds (2×) and 3.8 seconds and 4.4 seconds and 3.3 seconds and 2.9 seconds, the “CFA-induced inflammatory hyperalgesia” value ([2]; 1.9 µmol/kg, time 4 h) was 2.5 seconds and 2.6 seconds and 2.7 seconds (2×) and 2.8 seconds and 3.5 seconds and the “CFA-induced inflammatory hyperalgesia” value ([2]; 1.9 µmol/kg, time BL) was 10.6 s and 9.8 s and 10 s and 10.4 s and 10.3 s. For the same compound, the “return of thermal nociceptive thresholds to basal values” ([2]; after drug administration) was 2 h, the “time of peak effect” value ([2]; s.c.) was 15 min and the “effect on thermal sensitivity / paw withdrawal latencies” value ([2]; s.c., male mice) was “significantly reduced thermal sensitivity”. For the same compound, the “rotarod performance / motor behavior” value [3] was “no changes in the motor behavior”, the Emax [4] was 99.31 ± 0.52% and the Paw thickness ([5]; 0.8 µmol/kg) was 3.47 mm and 4.51 mm and 3.9 mm and 4.44 mm and 3.64 mm and 4.36 mm. The “reduction of paw thickness vs saline” value ([5]; 1.9 µmol kg^−1 s.c.) was 12 ± 2%, the Paw thickness ([5]; 1.9 µmol/kg) was 4.04 mm and 4.14 mm and 3.53 mm and 3.7 mm and 3.82 mm and the “reduction of paw thickness vs saline” value ([5]; 3.8 µmol kg^−1 s.c.) was 17 ± 3%. The “antagonism of anti-inflammatory effect by nor-BNI” value ([5]; nor-BNI 13.6 µmol kg^−1 s.c. pretreatment) was “significantly reversed by pre-treatment with nor-BNI”, the Emax [6] was 92 ± 1% and the Emax [7] was 85.55 ± 0.78%. For the same compound, the Emax [8] was 45.8 ± 1.95%, the Emax [9] was 92.57 ± 0.43% and the Emax [10] was 83%. For the same compound, the Emax [11] was 41%, the Emax [12] was 62.2 ± 1.08% and the Emax [13] was 90.2 ± 1.46%. For the same compound, the Emax [14] was 56 ± 7%, the “Emax (%) β-arrestin-2” value [15] was “devoid of arrestin recruitment” and the BRET-βarr2 recruitment ([15]; Log [ligand] (M) -5, replicates) was 0.2189 and 0.2059 and 0.2229 and 0.2169. The BRET-βarr2 recruitment ([15]; Log [ligand] (M) -7, replicates) was 0.2499 (2×) and 0.2479 and 0.2279 and 0.2289 and 0.2269, the BRET-βarr2 recruitment ([15]; Log [ligand] (M) -8, replicates) was 0.2479 and 0.2309 and 0.2579 and 0.2119 and 0.2179 and 0.2099 and the BRET-βarr2 recruitment ([15]; Log [ligand] (M) -9, replicates) was 0.2369 and 0.2529 and 0.2379 and 0.2309 and 0.2499 and 0.2069. The BRET-βarr2 recruitment ([15]; Log [ligand] (M) -10, replicates) was 0.2429 and 0.2419 and 0.2489 and 0.2119 and 0.2309 and 0.2049, the BRET-βarr2 recruitment ([15]; Log [ligand] (M) -11, replicates) was 0.2319 and 0.2289 and 0.2379 and 0.2249 and 0.2229 and 0.2019 and the BRET-βarr2 recruitment ([15]; Log [ligand] (M) -12, replicates) was 0.2219 and 0.2179 and 0.2429 and 0.2239 and 0.2299 and 0.2119. For the same compound, the “serum stability, amount remaining, Figure S15” value ([16]; Time (min) 0) was 100, the stable in serum ([16]; authors' response in peer review file) was “at least 50 h” and the remaining at 5 min, 50 µM ([16]; human, human serum, serum stability, amount remaining, Figure S15, Time (min) 5) was 94%. It also gave a remaining at 10 min, 50 µM ([16]; human, human serum, serum stability, amount remaining, Figure S15, Time (min) 10) of 94%, a remaining at 20 min, 50 µM ([16]; human, human serum, serum stability, amount remaining, Figure S15, Time (min) 20) of 99% and a remaining at 40 min, 50 µM ([16]; human, human serum, serum stability, amount remaining, Figure S15, Time (min) 40) of 96%. It also gave a remaining at 1 h, 50 µM ([16]; human, human serum, serum stability, amount remaining, Figure S15, Time (min) 60) of 106%, a remaining at 2 h, 50 µM ([16]; human, human serum, serum stability, amount remaining, Figure S15, Time (min) 120) of 98% and a remaining at 4 h, 50 µM ([16]; human, human serum, serum stability, amount remaining, Figure S15, Time (min) 240) of 101%. It also gave a remaining at 6 h, 50 µM ([16]; human, human serum, serum stability, amount remaining, Figure S15, Time (min) 360) of 99%, a remaining at 24 h, 50 µM ([16]; human, human serum, serum stability, amount remaining, Figure S15, Time (min) 1440) of 98% and a remaining at 48 h, 50 µM ([16]; human, human serum, serum stability, amount remaining, Figure S15, Time (min) 2880) of 96%. For the same compound, the remaining at 48 h, 50 µM ([16]; human, human serum, serum stability, remaining intact, after 48 h, 37 °C) was over 95% and the Emax [17] was 85.9 ± 1.2%.

Reference: PMC10698194 (Nature Communications, 2023)
